Experimental data taken from patent US5750531A, “Pyrimidine derivatives and processes for the preparation thereof” (Yuhan Corporation, priority 1994, dated 1998).
Structures can show the parent of a compound that is named as a salt.

How the values were obtained:
gastric secretion = test: Inhibition of gastric secretion (pylorus ligation, Shay method); assay type: in vivo, Male Sprague-Dawley rats; details: 20 mg/kg intraduodenally, 5 hours; for Rel. Conc.: acid concentration relative to omeprazole; for Relative Acid Output: acid output relative to omeprazole; for Rel. Vol.: gastric juice volume relative to omeprazole
Outline: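 Rats under ether anaesthesia had the pylorus ligated, and the stomach was removed 5 h later. Gastric juice was centrifuged at 1,000 g, and its volume and acidity were measured. Relative volume, relative acid concentration and relative acid output […] were then calculated.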

[1] = biological target: proton pump(H^+ /K^+ ATPase); test: Inhibition of proton pump(H^+ /K^+ ATPase) activity; assay type: biochemical; details: pH 6.0, 37° C., 30 minutes preincubation and 30 minutes reaction; read-out: IC50 Test compound
Protocol: Test 1: Inhibition of proton pump(H^+ /K^+ ATPase) activity
A proton pump enzyme source was prepared by the same method as in Experiment 1-1 of WO 94/14795. Further, the inhibitory effect of proton pump activity was measured by the same method as in Experiment 1-2 of WO 94/14795.
Namely, the proton pump activity stimulated by Mg^++ was used as a negative comparative group, and the activity stimulated by Mg^++ and K^+ was used as a positive comparative group. The comparative compound was omeprazole.
Test tubes were divided into 4 groups: Group 1 as negative comparative group(n=3), Group 2 as positive comparative group(n=3), Group 3(n=5×2) to be administered with the compound of the present invention and Group 4(n=5×2) to be administered with the comparative compound.
The inhibitory effects of Groups 3 and 4 on proton pump activity were measured by employing the compound prepared in Example and omeperazole, respectively, each of which was dissolved in dimethylsulfoxide at 5 different concentrations.
To each of Groups 1, 2, 3 and 4 were added 100 μl of magnesium chloride(40 mM) dissolved in 40 mM Tris-HCl buffer(pH 6.0) and 100μ of the enzyme source. Then, 50μ of potassium chloride(50 mM) and 50 μl of ammonium chloride(6 mM) dissolved in 40 mM Tris-HCl buffer(pH 6.0) were added to all groups except for Group 1.
10 μl of dimethylsulfoxide was added to each of Groups 1 and 2; and to Group 3 was added 10 μl of the solution in which the compound prepared in Example was dissolved in dimethylsulfoxide at 5 different concentrations(n=5×2). To Group 4, 10 μl of the solution prepared by dissolving omeprazole in dimethylsulfoxide at 5 different concentrations(37.6, 21.4, 12.2, 7.0 and 4.0 μM) was added(n=5×2). 40 mM Tris-HCl buffer(pH=6.0) was added thereto so as to make the total volume 400 μl.
Thereafter, the test tubes of each Group were placed at 37° C. for 30 minutes for the preincubation. 100 μl of ATP solution (6.6 mM) was added until the reaction volume became 500 μl. After the reaction was carried out at 37° C. for 30 minutes, 25% cold trichloroacetic acid was added to terminate the enzyme reaction. The released inorganic phosphate was measured by an automatic analyzer(Express 550, Corning).
The difference between Group 1 and Group 2 represents the proton pump activity activated by K^+ only. The inhibition percentages of Groups 3 and 4 were calculated from Litchfield-wilcoxon equation[see, e.g., J. pharmacol. Exp. Ther., 96, 99(1949)]. The concentrations of the test compounds which inhibit 50% of the proton pump activity are represented as IC50 in Table 1.

SMILES	Rel. Conc. (gastric secretion)	Relative Acid Output (gastric secretion)	Rel. Vol. (gastric secretion)	IC50 [1]
Cc1nc(N(C)c2ccccc2)nc(N2CCc3ccccc3[C@H]2C)c1C.Cl [Example 19, (R)-5,6-Dimethyl-2-(N-methylphenylamino)-4-(1-methyl-1,2,3,4-tetrahydroisoquinolin-2-yl)pyrimidine hydrochloride]	1.86	1.43	1.8	3.9 µM
CCc1cc(N2CCc3ccccc3C2)nc(Nc2ccc(F)cc2C)n1.Cl [Example 37, 6-ethyl-2-(2-methyl-4-fluorophenylamino)-4-(1,2,3,4-tetrahydroisoquinolin-2-yl)pyrimidine hydrochloride]	0.42	0.82	0.82	0.7 µM
Cc1cc(Nc2ccc(F)cc2C)nc(N2CCc3ccccc3C2C)n1.Cl (centres unmarked) [Example 57, 6-methyl-4-(2-methyl-4-fluorophenylamino)-2-(1-methyl-1,2,3,4-tetrahydroisoquinolin-2-yl)pyrimidine hydrochloride]	0.27	0.61	1.2	3.3 µM
CCc1cc(N2CCc3ccccc3C2)nc(Nc2ccc(F)cc2)n1.Cl [Example 38, 6-ethyl-2-(4-fluorophenylamino)-4-(1,2,3,4-tetrahydroisoquinolin-2-yl)pyrimidine hydrochloride]	0.37	0.74	0.74	2.2 µM
Cc1cc(Nc2ccc(F)cc2)nc(N2CCc3ccsc3C2C)n1.Cl (centres unmarked) [Example 60, 6-methyl-4-(4-fluorophenylamino)-2-(7-methyl-4,5,6,7-tetrahydrothieno[2,3-c]pyridin-6-yl)pyrimidine hydrochloride]	0.28	0.65	0.65	~15 µM
Cc1nc(Nc2ccc(F)cc2)nc(N2CCc3ccccc3[C@H]2C)c1C.Cl [Example 16, (R)-5,6-dimethyl-2-(4-fluorophenylamino)-4-(1-methyl-1,2,3,4-tetrahydroisoquinolin-2-yl)pyrimidine hydrochloride]	1.24	1.13	0.96	1.5 µM
CCc1nc(N(C)c2ccccc2)nc(N2CCc3ccccc3C2)c1C.Cl [Example 46, 5-methyl-6-ethyl-2-(N-methylphenylamino)-4-(1,2,3,4-tetrahydroisoquinolin-2-yl)pyrimidine hydrochloride]	0.44	0.74	0.73	~19.2 µM
Cc1nc(N(C)c2ccccc2)nc(N2CCc3ccccc3C2C)c1C.Cl (centres unmarked) [Example 18, 5,6-dimethyl-2-(N-methylphenylamino)-4-(1-methyl-1,2,3,4-tetrahydroisoquinolin-2-yl)pyrimidine hydrochloride]	1.82	1.39	1.72	4.2 µM
CCc1cc(Nc2ccc(F)cc2C)nc(N2CCc3ccccc3C2C)n1.Cl (centres unmarked) [Example 61, 6-Ethyl-4-(2-methyl-4-fluorophenylamino)-2-(1-methyl-1,2,3,4-tetrahydroisoquinolin-2-yl)pyrimidine hydrochloride]	0.22	0.40	0.32	~12.5 µM
Cc1cc(F)ccc1Nc1nc2c(c(N3CCc4ccccc4C3)n1)CCC2 [Example 47, 2-(2-methyl-4-fluorophenylamino)-4-(1,2,3,4-tetrahydroisoquinolin-2-yl)cyclopenta[d]pyrimidine hydrochloride]	0.14	0.38	0.38	~5 µM
Cc1nc(N(C)c2ccccc2)nc(N2CCc3ccccc3[C@@H]2C)c1C.Cl [Example 20, (S)-5,6-dimethyl-2-(N-methylphenylamino)-4-(1-methyl-1,2,3,4-tetrahydroisoquinolin-2-yl)pyrimidine hydrochloride]	1.75	1.28	1.66	4.4 µM
Cc1nc(Nc2ccccc2)nc(N2CCc3ccccc3[C@@H]2C)c1C [Example 23, hydrochloride]	0.78	0.88	0.92	2 µM
Cc1nc(Nc2ccc(F)cc2)nc(N2CCc3ccccc3C2)c1C.Cl [Example 42, 5,6-dimethyl-2-(4-fluorophenylamino)-4-(1,2,3,4-tetrahydroisoquinolin-2-yl)pyrimidine hydrochloride]	1.4	1.15	1.15	1.5 µM
Cc1cc(F)ccc1Nc1nc2c(c(N3CCc4ccccc4C3C)n1)CCC2 (centres unmarked) [Example 29, hydrochloride]	0.31	0.6	0.56	0.4 µM
Cc1cc(F)ccc1Nc1nc(C)c(C)c(N2CCc3ccsc3C2C)n1.Cl (centres unmarked) [Example 55, 5,6-dimethyl-2-(2-methyl-4-fluorophenylamino)-4-(7-methyl-4,5,6,7-tetrahydrothieno[2,3-c]pyridin-6-yl)pyrimidine hydrochloride]	0.11	0.51	0.56	2.1 µM
CCc1cc(Nc2ccc(F)cc2C)nc(N2CCc3ccccc3C2)n1.Cl [Example 62, 6-ethyl-4-(2-methyl-4-fluorophenylamino)-2-(1,2,3,4-tetrahydroisoquinolin-2-yl)pyrimidine hydrochloride]	0.31	0.67	0.61	> 20 µM
Cc1cc(F)ccc1Nc1nc2c(c(N3CCc4ccccc4C3)n1)CCCC2.Cl [Example 48, 2-(2-methyl-4-fluorophenylamino)-4-(1,2,3,4-tetrahydroisoquinolin-2-yl)-5,6,7,8-tetrahydroquinazoline hydrochloride]	0.04	0.16	0.17	~5.5 µM
Cc1cc(F)ccc1Nc1nc(C)c(C)c(N2CCc3ccccc3[C@@H]2C)n1.Cl [Example 14, (S)-5,6-dimethyl-2-(2-methyl-4-fluorophenylamino)-4-(1-methyl-1,2,3,4-tetrahydroisoquinolin-2-yl)pyrimidine hydrochloride]	0.3	0.72	0.53	0.7 µM
Cc1cc(N2CCc3ccsc3C2C)nc(N(C)c2ccccc2)n1.Cl (centres unmarked) [Example 54, 6-methyl-2-(N-methylphenylamino)-4-(7-methyl-4,5,6,7-tetrahydrothieno[2,3-c]pyridin-6-yl)pyrimidine hydrochloride]	0.23	0.75	0.86	20.6 µM
CCc1cc(N2CCc3ccccc3C2C)nc(Nc2ccccc2C)n1.Cl (centres unmarked) [Example 8, 6-ethyl-2-(2-methylphenylamino)-4-(1-methyl-1,2,3,4-tetrahydroisoquinolin-2-yl)pyrimidine hydrochloride]	0.12	0.42	0.43	~12.5 µM
CCc1cc(N(C)c2ccccc2)nc(N2CCc3ccccc3C2)n1.Cl [Example 64, 6-ethyl-4-(N-methylphenylamino)-2-(1,2,3,4-tetrahydroisoquinolin-2-yl)pyrimidine hydrochloride]	0.26	0.40	0.34	~10 µM
Cc1cc(N2CCc3ccccc3C2)nc(Nc2ccc(F)cc2)n1.Cl [Example 35, 6-methyl-2-(4-fluorophenylamino)-4-(1,2,3,4-tetrahydroisoquinoline-2-yl)pyrimidine hydrochloride]	0.84	0.94	1.05	2.5 µM
Cl.Fc1ccc(Nc2nc3c(c(N4CCc5ccccc5C4)n2)CCCC3)cc1 [Example 49, 2-(4-fluorophenylamino)-4-(1,2,3,4-tetrahydroisoquinolin-2-yl)-5,6,7,8-tetrahydroquinazoline hydrochloride]	0.02	0.16	0.2	~10.8 µM
